Each structure is given as a SMILES string.

T1 sequence (O35433 whole entry): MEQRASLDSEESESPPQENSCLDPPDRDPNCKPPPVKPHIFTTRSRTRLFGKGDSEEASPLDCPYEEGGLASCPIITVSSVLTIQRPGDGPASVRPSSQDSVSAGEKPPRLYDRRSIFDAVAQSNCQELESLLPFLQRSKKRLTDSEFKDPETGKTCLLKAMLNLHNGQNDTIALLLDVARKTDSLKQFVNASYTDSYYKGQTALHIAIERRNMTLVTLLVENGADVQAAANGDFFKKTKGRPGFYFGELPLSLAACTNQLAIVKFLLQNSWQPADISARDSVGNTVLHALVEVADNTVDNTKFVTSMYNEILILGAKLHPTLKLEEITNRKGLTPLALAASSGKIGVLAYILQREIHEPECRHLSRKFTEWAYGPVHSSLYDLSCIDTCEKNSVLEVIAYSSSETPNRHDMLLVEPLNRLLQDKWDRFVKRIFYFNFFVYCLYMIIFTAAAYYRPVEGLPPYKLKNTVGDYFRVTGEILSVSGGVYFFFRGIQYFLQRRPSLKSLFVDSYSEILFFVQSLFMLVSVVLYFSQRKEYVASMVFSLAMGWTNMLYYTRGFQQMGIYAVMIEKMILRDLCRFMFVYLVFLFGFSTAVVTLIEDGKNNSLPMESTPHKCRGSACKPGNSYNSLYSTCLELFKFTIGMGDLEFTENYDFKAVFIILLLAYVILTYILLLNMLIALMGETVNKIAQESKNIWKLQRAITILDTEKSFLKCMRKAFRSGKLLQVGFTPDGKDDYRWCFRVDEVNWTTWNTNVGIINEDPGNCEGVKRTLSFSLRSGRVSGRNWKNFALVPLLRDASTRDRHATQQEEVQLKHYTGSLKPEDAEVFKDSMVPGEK

The first experiment addresses T1, rat TRPV1 (Rattus norvegicus, UniProt O35433).
T1 construct: expressed in transfected cells; host or cells: HEK293
The experiment can be described thus: Assay for inhibitory activity against VR1 patch clamp activity (capsaicin current, inside-out patch). Format: cell-based. Particulars: 1 μM compound with 10 μM capsaicin; rat TRPV1-transfected HEK293, inside-out patch; relative to capsaicin current before compound. As for the experimental part: Each of the compounds synthesized in the examples were dissolved in dimethyl sulfoxide (DMSO) at a concentration of 10 mM. For use in the assay for inhibitory activity against patch clamp activity, the solutions were diluted to a concentration of 1 μM with the same physiological saline as in the pipette solution of Table 1, below.
2) Assay for Inhibitory Activity Against VR1 Patch Clamp Activity
In this experiment, changes in VR1 activity were recorded in current using an electrophysiological technique.
For use in this experiment, a rat TRPV1 cDNA was transfected into a subcultured HEK293 strain with the aid of lipofectamin.
The rat TRPV1 gene-transfected HEK293 cells were detached from the cell culture dishes with trypsin and distributed on a patch clamp recording chamber.
A cover glass slip on the bottom of the patch clamp recording chamber was treated for 15 min or longer with a […] poly-L-lysine solution so that the HEK cells would readily adhere thereto. Cellular membranes were ruptured at room temperature (˜25° C.) from randomly selected HEK cells to perform an inside-out patch clamp technique. 10 μM of capsaicin was fed into the chamber (cytoplasmic side) to activate a capsaicin current through the VR1. When the capsaicin current reached a stable stage, each compound was added along with 10 μM of capsaicin to record the inhibitory activity of the compounds with regard to the current. The inhibition was expressed as percentages.
Detected current was amplified using a Digidata 1200B A/D converter and an Axopatch 1D amplifier (Axon instruments Inc.), and the data were recorded and analyzed with the aid of a computer. The inhibitory activity of each compound was expressed as a percentage relative to the capsaicin current immediately before the administration of each compound.
For orientation: Patch clamp records ionic current or voltage across a cell membrane.
For the compound `COc1ccc2nc(-c3ccc(-c4ncccc4Cl)cc3)[nH]c2c1` [Compound 5, 2-[4-(3-chloropyridin-2-yl)phenyl]-6-methoxy-1H-benzoimidazole], 1 µM produced 10% inhibition.

`FC(F)(F)c1ccc2nc(-c3ccc(-c4ncc(Cl)cc4Cl)c(Cl)c3)[nH]c2c1` [Compound 117, 2-[3-chloro-4-(3,5-dichloropyridin-2-yl)phenyl]-6-trifluoromethyl-1H-benzoimidazole] showed an inhibition at 1 µM of 80%.

On to `Fc1ccc2nc(-c3ccc(Oc4ccccc4)cc3)[nH]c2c1` [Compound 193, 6-fluoro-2-(4-phenoxyphenyl)-1H-benzoimidazole], for which the inhibition at 1 µM stood at 50%.

As for `COc1ccc2nc(-c3ccc(Oc4ccccc4)cc3)[nH]c2c1` [Compound 194, 6-methoxy-2-(4-phenoxyphenyl)-1H-benzoimidazole], 1 µM produced 30% inhibition.

`c1cnc2[nH]c(-c3ccc(-n4cccc4)cc3)nc2c1` [Compound 179, 2-(4-pyrrol-1-ylphenyl)-3H-imidazo[4,5-b]pyridine]: the inhibition at 1 µM worked out at 100%.

The compound `CC(C)(C)c1ccc2nc(-c3ccc(-c4ncccc4Cl)c(Cl)c3)[nH]c2c1` [Compound 116, 6-tert-butyl-2-[3-chloro-4-(3-chloropyridin-2-yl)phenyl]-1H-benzoimidazole] yielded an inhibition at 1 µM of 30%.

In turn, `CC(C)(C)c1ccc2nc(-c3ccc(-c4ncc(Cl)cc4Cl)cc3F)[nH]c2c1` [Compound 70, 6-tert-butyl-2-[4-(3,5-dichloropyridin-2-yl)-2-fluorophenyl]-1H-benzoimidazole] came in with an inhibition at 1 µM of 45%.

The compound `FC(F)(F)c1ccc2nc(-c3ccc(Oc4ccccc4)cc3)[nH]c2c1` [Compound 189, 2-(4-phenoxyphenyl-6-trifluoromethyl)-1H-benzoimidazole] gave an inhibition at 1 µM of 90%.

`FC(F)(F)c1ccc2nc(-c3ccc(-n4cccc4)cc3)[nH]c2c1` [Compound 178, 2-(4-pyrrol-1-ylphenyl]-6-trifluoromethyl-1H-benzoimidazole] showed an inhibition at 1 µM of 20%.

For the compound `FC(F)(F)c1cc(C(F)(F)F)c2nc(-c3ccc(-c4ccccn4)c4ccccc34)[nH]c2c1` [Compound 115, 2-(4-pyridin-2-ylnaphthalen-1-yl)-4,6-bistrifluoromethyl-1H-benzoimidazole], the inhibition at 1 µM was 71%.

With `Clc1ccc2nc(-c3ccc(Oc4ccccc4)cc3)[nH]c2c1` [Compound 191, 6-chloro-2-(4-phenoxyphenyl)-1H-benzoimidazole], the inhibition at 1 µM is 60%.

For `FC(F)(F)c1ccc2nc(-c3ccc(-c4ccccc4)cc3)[nH]c2c1` [Compound 183, 2-biphenyl-4-yl-6-trifluoromethyl-1H-benzoimidazole], the inhibition at 1 µM worked out at 17%.

In the case of `CC(C)(C)c1ccc2nc(-c3ccc(-c4ncc(C(F)(F)F)cc4Cl)c(Cl)c3)[nH]c2c1` [Compound 121, 6-tert-butyl-2-[3-chloro-4-(3-chloro-5-trifluoromethylpyridin-2-yl)phenyl]-1H-benzoimidazole], the inhibition at 1 µM turned out to be 76%.

For a further experiment, the target named is T2, human vanilloid-1 (hVR1) (Homo sapiens, UniProt Q8NER1).
T2 construct: expressed in transfected cells; host or cells: HEK293 Tet-on (hVR1-HEK293), doxycycline-induced
T2 sequence (Q8NER1 whole entry): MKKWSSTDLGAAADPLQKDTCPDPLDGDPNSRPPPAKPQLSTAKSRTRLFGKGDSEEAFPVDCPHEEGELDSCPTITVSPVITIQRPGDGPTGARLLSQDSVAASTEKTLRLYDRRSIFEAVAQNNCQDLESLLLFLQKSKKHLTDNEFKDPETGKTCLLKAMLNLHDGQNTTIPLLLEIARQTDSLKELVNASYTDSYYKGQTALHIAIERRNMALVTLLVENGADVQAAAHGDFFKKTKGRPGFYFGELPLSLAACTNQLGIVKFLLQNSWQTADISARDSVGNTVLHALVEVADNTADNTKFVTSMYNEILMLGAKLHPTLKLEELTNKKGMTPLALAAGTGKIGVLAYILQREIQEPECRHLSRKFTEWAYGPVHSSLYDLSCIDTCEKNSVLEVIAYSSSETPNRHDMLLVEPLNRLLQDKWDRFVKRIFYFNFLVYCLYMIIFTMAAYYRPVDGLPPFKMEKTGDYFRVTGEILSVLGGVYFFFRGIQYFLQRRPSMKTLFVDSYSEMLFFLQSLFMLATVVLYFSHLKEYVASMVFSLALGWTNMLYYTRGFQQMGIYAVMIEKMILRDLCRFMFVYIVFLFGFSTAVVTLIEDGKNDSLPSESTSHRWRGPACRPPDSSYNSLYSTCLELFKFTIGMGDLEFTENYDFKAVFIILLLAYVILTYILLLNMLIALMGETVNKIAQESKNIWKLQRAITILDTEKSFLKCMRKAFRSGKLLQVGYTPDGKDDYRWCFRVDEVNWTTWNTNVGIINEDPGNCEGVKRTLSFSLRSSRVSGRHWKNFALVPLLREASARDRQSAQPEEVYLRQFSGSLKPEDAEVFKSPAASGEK
The experiment can be described thus: Calcium influx of vanilloid receptor in hVR1-HEK293 cells (capsaicin-induced, Fluo-3/AM). The conditions noted are these: 1 μM capsaicin-induced intracellular calcium influx, read-out: Inhibitory Activity IC50. Format: cell-based. As for the experimental part:
Experiments for calcium influx were performed to measure the activity of the compounds as antagonists.
The cell strain hVR1-HEK293 is the human embryonic kidney (HEK) 293 Tet-on cell transfected with a human vanilloid-1 gene (pTRE2hyg-hVR1, 7.8 kb), which is capable of controlling the expression of VR1 according to the administration of deoxycycline, a tetracycline derivative analog. In a medium supplemented with deoxycycline two days before calcium influx experiments, the cell strain was cultured to induce the expression of VR1. After being grown to a confluency of about 80% in T75 flasks, hVR1-HEK293 was detached from the flask using trypsin. Cells harvested by centrifugation were suspended in a medium supplemented with 1 μg/mL of deoxycycline and diluted to a density of 2-4×10^5 cells/mL, after which a 100 μL aliquot of the cell suspension was added to each well of 96 well black plates. Before the measurement of calcium influx, the cells were incubated for two days at 37° C. in a 5% CO2 incubator.
For use in calcium influx experiments, each compound was dissolved in dimethyl sulfoxide (DMSO).
To measure an intracellular calcium influx, cells were incubated at 37° C. for 90 min in a medium containing the calcium indicator Fluo-3/AM so as to allow the fluorescent dye to penetrate into the cells. Then, the cells were washed three times with D-PBS (Dulbecco's phosphate buffered saline) containing 10 mM HEPES to remove the fluorescent dye which remained outside. 193 μL aliquot of D-PBS was added to each well, followed by the addition of various concentrations of compounds thereto. In order to measure the antagonistic activity of the compounds, calcium influx was induced by treatment with 1 μM capsaicin. The inhibitory effect of each compound on 1 μM capsaicin-induced intracellular calcium influx according to compound concentration was measured using a fluorescent analyzer and the data thus obtained were analyzed on the basis of the Hill's equation.
As to `COc1ccc2nc(-c3ccc(-c4ncccc4Cl)cc3)[nH]c2c1` [Compound 5, 2-[4-(3-chloropyridin-2-yl)phenyl]-6-methoxy-1H-benzoimidazole], the half-maximal inhibitory concentration (IC50) is 6040 nM.

Regarding `FC(F)(F)c1ccc2nc(-c3ccc(-c4ncc(Cl)cc4Cl)c(Cl)c3)[nH]c2c1` [Compound 117, 2-[3-chloro-4-(3,5-dichloropyridin-2-yl)phenyl]-6-trifluoromethyl-1H-benzoimidazole], the concentration for half-maximal inhibition (IC50) stood at 525 nM.

`FC(F)(F)c1cc(Br)c2nc(-c3ccc(-c4ncccc4Cl)cn3)[nH]c2c1` [Compound 140, 4-bromo-2-(5-(3-chloropyridin-2-yl)pyridin-2-yl)-6-(trifluoromethyl)-1H-benzoimidazole]: the 50% inhibitory concentration (IC50) came out at 66 nM.

For the compound `CC(C)(C)c1ccc2nc(-c3ccc(-c4ncccn4)cc3)[nH]c2c1` [Compound 58, 6-tert-butyl-2-(4-(pyrimidin-2-yl)phenyl)-1H-benzoimidazole], the concentration for half-maximal inhibition (IC50) was found to be 145 nM.

In the case of `Fc1ccc2nc(-c3ccc(-c4ncccc4C(F)(F)F)cc3)[nH]c2c1` [Compound 38, 6-fluoro-2-(4-(3-(trifluoromethyl)pyridin-2-yl)phenyl)-1H-benzoimidazole], the 50% inhibitory concentration (IC50) came to 454 nM.

As a reminder, the inhibition is how much of the control response was suppressed. Lower therefore signals a weak effect. Broadly, the IC50 is the concentration that gives 50% inhibition.

The values above are taken from patent publication US9199965B2, “Benzoimidazole derivatives and pharmaceutical composition comprising the same” (Daewoong Co., Ltd., priority 2005, dated 2015).
